Experimental data taken from article PMC8119466, “A screen of FDA-approved drugs identifies inhibitors of protein tyrosine phosphatase 4A3 (PTP4A3 or PRL-3)” (Scientific Reports, 2021).
Counter-ions that a name gives are not always drawn.

Assays:
Type in all cases: biochemical
Conditions in all cases: FDA-approved drug screen; compared to DMSO
[1] = biological target: T1, recombinant PRL-1 (Homo sapiens, UniProt Q93096); assay: In vitro phosphatase assay (DiFMUP hydrolysis), PRL-1; further: test concentration or dose not given here
T1 construct: 6xHis (N, cleaved yes); made in house; host or cells: E. coli One Shot BL21 Star
T1 sequence (Q93096 1-173): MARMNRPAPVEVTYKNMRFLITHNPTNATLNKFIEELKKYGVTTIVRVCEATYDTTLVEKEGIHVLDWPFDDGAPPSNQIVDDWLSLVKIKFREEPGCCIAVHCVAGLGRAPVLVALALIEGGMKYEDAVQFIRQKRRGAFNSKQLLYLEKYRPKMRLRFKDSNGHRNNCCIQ

[2] = biological target: T2, recombinant PRL-2 (Homo sapiens, UniProt Q12974); assay: In vitro phosphatase assay (DiFMUP hydrolysis), PRL-2;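 further: PRL-2 activity read as DiFMUP hydrolysis after 20 min at room temperature with drug, enzyme first pre-reduced at 4 °C for 20 min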
T2 construct: 6xHis (N, cleaved yes); made in house; host or cells: E. coli One Shot BL21 Star
T2 sequence (Q12974 1-167): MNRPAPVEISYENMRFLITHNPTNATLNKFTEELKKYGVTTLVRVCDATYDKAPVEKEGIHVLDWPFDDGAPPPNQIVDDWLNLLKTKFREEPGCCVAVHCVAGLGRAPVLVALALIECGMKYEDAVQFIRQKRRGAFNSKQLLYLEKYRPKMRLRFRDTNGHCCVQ

[3] = biological target: T3, recombinant PRL-3 (Homo sapiens, UniProt O75365); assay: In vitro phosphatase assay (DiFMUP hydrolysis), PRL-3; further: test concentration or dose not given here
T3 construct: 6xHis (N, cleaved yes); made in house; host or cells: E. coli One Shot BL21 Star
T3 sequence (O75365 whole entry): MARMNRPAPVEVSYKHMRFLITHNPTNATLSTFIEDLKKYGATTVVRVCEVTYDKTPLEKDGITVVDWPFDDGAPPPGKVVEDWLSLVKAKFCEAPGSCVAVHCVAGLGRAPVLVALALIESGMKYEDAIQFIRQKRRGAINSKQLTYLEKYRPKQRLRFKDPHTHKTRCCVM

Structure (SMILES) | % Phosphatase Activity (compared to DMSO) PRL-1 [1] [%] | % Phosphatase Activity (compared to DMSO) PRL-2 [2] [%] | % Phosphatase Activity (compared to DMSO) PRL-3 [3] [%]
Oc1ncnc2[nH]ncc12 [Allopurinol] | 104 | 97 | 77
C=CCNC(N)=S [Allylthiourea] | 106 | 121 | 86
CN(C)CCc1c[nH]c2ccc(CS(=O)(=O)N3CCCC3)cc12.O=C(O)CC(O)C(=O)O [Almotriptan Malate] | 97 | 114 | 68
Cn1c(=O)cc(N2CCC[C@@H](N)C2)n(Cc2ccccc2C#N)c1=O [Alogliptin] | 112 | 123 | 96
CCOC(=O)[C@H]1O[C@@H]1C(=O)N[C@@H](CC(C)C)C(=O)NCCC(C)C [Aloxistatin] | 87 | 78 | 86
CCCCC[C@H](O)/C=C/[C@H]1[C@H](O)CC(=O)[C@@H]1CCCCCCC(=O)O [Alprostadil] | 117 | 113 | 98
C=CC[C@]1(O)CC[C@H]2[C@@H]3CCC4=CC(=O)CCC4=C3C=C[C@@]21C [Altrenogest] | 192 | 178 | 156
CN(C)c1nc(N(C)C)nc(N(C)C)n1 [Altretamine] | 89 | 89 | 71
Cc1c(-c2ccnn2C)cc(C(=O)NCc2ccc(S(C)(=O)=O)cn2)c(=O)n1-c1cccc(C(F)(F)F)c1 [Alvelestat (AZD9668)] | 138 | 114 | 121
CCN(CCCc1ccccc1)CCCc1ccccc1 [Alverine Citrate] | 97 | 107 | 95
NC12CC3CC(CC(C3)C1)C2 [Amantadine HCl] | 117 | 127 | 88
COC(c1ccccc1)(c1ccccc1)[C@H](Oc1nc(C)cc(C)n1)C(=O)O [Ambrisentan] | 94 | 99 | 78
Cl.Nc1c(Br)cc(Br)cc1CN[C@H]1CC[C@H](O)CC1 [Ambroxol HCl] | 105 | 117 | 98
CC(NC(C)(C)C)C(=O)c1cccc(Cl)c1.Cl (stereo not drawn) [Amfebutamone HCl] | 102 | 110 | 77
Nc1c(CC(=O)[O-])cccc1C(=O)c1ccccc1.O.[Na+] [Amfenac Sodium Monohydrate] | 89 | 108 | 67
NCCCNCCSP(=O)(O)O [Amifostine] | 110 | 108 | 114
NCC[C@H](O)C(=O)N[C@@H]1C[C@H](N)[C@@H](O[C@H]2O[C@H](CN)[C@@H](O)[C@H](O)[C@H]2O)[C@H](O)[C@H]1O[C@H]1O[C@H](CO)[C@@H](O)[C@H](N)[C@H]1O [Amikacin disulfate] | 96 | 152 | 110
NCC[C@H](O)C(=O)N[C@@H]1C[C@H](N)[C@@H](O[C@H]2O[C@H](CN)[C@@H](O)[C@H](O)[C@H]2O)[C@H](O)[C@H]1O[C@H]1O[C@H](CO)[C@@H](O)[C@H](N)[C@H]1O [Amikacin hydrate] | 91 | 95 | 107
N=C(N)NC(=O)c1nc(Cl)c(N)nc1N [Amiloride HCl] | 234 | 300 | 230
